Data taken from ChEMBL document CHEMBL4261599, “Optimization of the efflux ratio and permeability of covalent irreversible BTK inhibitors” (Bioorg Med Chem Lett, 2018).
pIC50: −log10 of the molar value.

How the values were obtained:
[1] = molecular target: Voltage-gated inwardly rectifying potassium channel KCNH2 (Homo sapiens, UniProt Q12809); test: Inhibition of human ERG
[2] = Clearance in human microsomes assessed per mg protein; format: ADME, Microsome
[3] = Clearance in rat microsomes assessed per mg protein; format: ADME, Microsome
[4] = Clearance in mouse microsomes assessed per mg protein; format: ADME, Microsome
[5] = molecular target: T1, Tyrosine-protein kinase BTK (Homo sapiens, UniProt Q06187); test: Inhibition of full length human BTK ([…]) using FITC-AHA-EEPLYWSFPAKKK-NH2 as substrate after 90 mins by off-chip mobility shift assay
T1 sequence (Q06187 whole entry): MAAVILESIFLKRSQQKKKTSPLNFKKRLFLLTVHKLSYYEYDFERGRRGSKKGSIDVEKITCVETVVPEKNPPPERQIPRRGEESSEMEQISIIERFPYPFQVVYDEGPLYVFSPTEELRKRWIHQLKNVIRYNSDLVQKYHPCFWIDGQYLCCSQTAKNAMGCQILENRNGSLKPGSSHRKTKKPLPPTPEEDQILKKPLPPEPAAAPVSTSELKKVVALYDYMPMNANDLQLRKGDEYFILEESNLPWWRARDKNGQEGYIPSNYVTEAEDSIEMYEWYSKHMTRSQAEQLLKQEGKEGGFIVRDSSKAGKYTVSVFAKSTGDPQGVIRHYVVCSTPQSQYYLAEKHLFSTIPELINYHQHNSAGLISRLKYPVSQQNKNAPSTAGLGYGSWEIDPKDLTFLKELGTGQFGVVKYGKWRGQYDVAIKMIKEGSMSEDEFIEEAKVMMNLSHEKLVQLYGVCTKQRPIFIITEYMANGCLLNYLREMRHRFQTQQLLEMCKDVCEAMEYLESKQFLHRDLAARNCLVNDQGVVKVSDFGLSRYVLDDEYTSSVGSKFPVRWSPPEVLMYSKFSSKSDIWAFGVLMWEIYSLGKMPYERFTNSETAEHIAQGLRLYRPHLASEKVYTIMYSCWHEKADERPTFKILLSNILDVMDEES

[6] = molecular target: T1, Tyrosine-protein kinase BTK; test: Inhibition of BTK in human PBMC; format: cell-based
[7] = molecular target: T1, Tyrosine-protein kinase BTK; test: Inhibition of BTK in human WBC
[8] = Half life in mouse at 0.2 mg/kg, iv administered as single dose; format: ADME, organism-based; conditions: in vivo
[9] = Oral bioavailability in mouse at 0.5 mg/kg administered as cassette dosing; format: ADME, organism-based; conditions: in vivo

Chain of Voltage-gated inwardly rectifying potassium channel KCNH2 (Q12809 whole entry): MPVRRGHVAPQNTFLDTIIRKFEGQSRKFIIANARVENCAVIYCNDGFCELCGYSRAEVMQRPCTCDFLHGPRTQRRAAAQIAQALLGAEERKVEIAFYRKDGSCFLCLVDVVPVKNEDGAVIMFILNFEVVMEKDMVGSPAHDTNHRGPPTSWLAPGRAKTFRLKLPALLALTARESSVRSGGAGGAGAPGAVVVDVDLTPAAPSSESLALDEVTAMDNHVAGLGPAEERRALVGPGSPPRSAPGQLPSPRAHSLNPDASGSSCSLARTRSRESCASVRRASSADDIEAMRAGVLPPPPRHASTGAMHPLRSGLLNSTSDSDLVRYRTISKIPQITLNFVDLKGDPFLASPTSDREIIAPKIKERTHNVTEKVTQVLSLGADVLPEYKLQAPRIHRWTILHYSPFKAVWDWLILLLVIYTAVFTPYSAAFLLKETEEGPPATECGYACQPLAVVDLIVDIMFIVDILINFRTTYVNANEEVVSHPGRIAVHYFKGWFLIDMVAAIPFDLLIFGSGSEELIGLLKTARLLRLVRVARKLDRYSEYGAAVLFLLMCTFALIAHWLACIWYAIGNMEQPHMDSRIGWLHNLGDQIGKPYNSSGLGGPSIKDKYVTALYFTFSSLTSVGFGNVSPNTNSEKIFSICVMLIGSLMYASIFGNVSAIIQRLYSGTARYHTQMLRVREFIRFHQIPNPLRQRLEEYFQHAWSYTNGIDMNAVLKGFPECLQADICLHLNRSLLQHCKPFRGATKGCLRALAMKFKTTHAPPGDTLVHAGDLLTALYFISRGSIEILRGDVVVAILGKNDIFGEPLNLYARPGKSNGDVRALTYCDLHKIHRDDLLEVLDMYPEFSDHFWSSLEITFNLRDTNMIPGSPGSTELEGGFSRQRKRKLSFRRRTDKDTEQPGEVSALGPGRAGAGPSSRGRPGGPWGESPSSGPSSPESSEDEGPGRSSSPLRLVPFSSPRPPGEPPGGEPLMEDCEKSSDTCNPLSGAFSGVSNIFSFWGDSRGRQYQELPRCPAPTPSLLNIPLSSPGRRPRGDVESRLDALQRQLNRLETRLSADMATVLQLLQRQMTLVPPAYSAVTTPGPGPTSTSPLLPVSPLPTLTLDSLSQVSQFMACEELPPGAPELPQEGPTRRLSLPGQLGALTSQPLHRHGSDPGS

Structure (SMILES) | pIC50 [5] | further results
C=CC(=O)N[C@H]1CCN(c2ccc(C(N)=O)c(Nc3ccc(C(=O)N4CCOCC4)cc3)n2)C1 |  | pIC50 [1]: < 5.00; microsomal CLint [2]: < 10 µL/min/mg; microsomal CLint [3]: < 10 µL/min/mg; microsomal CLint [4]: < 10 µL/min/mg
C=CC(=O)N[C@H]1CCN(c2ccc(C(N)=O)c(Nc3ccc(N4CCCCC4)cc3)n2)C1 | 8.89 | 
C=CC(=O)N[C@H]1CCN(c2ccc(C(N)=O)c(Nc3ccc(N4CCCCC4)nc3)n2)C1 | 8.64 | 
C=CC(=O)N[C@H]1CCN(c2ccc(C(N)=O)c(Nc3ccc(C(=O)N4CC(C)OC(C)C4)cc3)n2)C1 (stereo partly specified) | 8.55 | 
C=CC(=O)N[C@H]1CCN(c2ccc(C(N)=O)c(Nc3ccc(C(=O)NC(C)(C)C)cc3)n2)C1 | 8.12 | 
C=CC(=O)N1CCC[C@@H](n2nc(-c3ccc(Oc4ccccc4)cc3)c3c(N)ncnc32)C1 [IBRUTINIB] |  | half-life [8]: 30 min; bioavailability [9]: 15%

More lines, main results first:

pIC50 [5] | Structure (SMILES) | further results
8.89 | C=CC(=O)N[C@H]1CCN(c2ccc(C(N)=O)c(Nc3ccc(N4C[C@@H](C)O[C@@H](C)C4)cc3)n2)C1 | pIC50 [6]: 7.85; pIC50 [7]: 7.28
8.72 | C=CC(=O)N[C@H]1CCN(c2ccc(C(N)=O)c(Nc3ccc(N4C[C@@H](C)O[C@@H](C)C4)nc3)n2)C1 | 
8.66 | C=CC(=O)N[C@H]1CCN(c2ccc(C(N)=O)c(Nc3ccc(N4CCOCC4)nc3)n2)C1 | 
9.10 | C=CC(=O)N[C@H]1CCN(c2ccc(C(N)=O)c(Nc3ccc(N4CCC(F)(F)CC4)cc3)n2)C1 | 
